The supplement of paper PMC11061612

Legend:
[1] = compound: C[C@@H]1COCCN1C2=NC(=NC(=C2)C3(CC3)[S@](=N)(=O)C)C4=C5C=CNC5=NC=C4 [AZD6738]; details: max 10 µM
Method in brief: (§1)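 Cancer cell lines in 1536-well plates (7.5 μl DMEM/F12 or RPMI, 10% FBS) were held 24 hours at 37°C and 5% CO2 and then dosed for 72 hours at a final DMSO of typically 0.2%. Viability was taken from CellTiter-Glo 2.0 luminescence, scaled between blank-well and DMSO-well means. Curves were fitted as two-parameter logistic models with a non-linear mixed effects model, from which the single-agent IC50 was taken.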

[2] = compound: C[C@@H](Nc1cc(F)cc(F)c1)c1cc(C(=O)N(C)C)cc2c(=O)cc(N3CCOCC3)oc12 [AZD8186]; details: max 10 µM
Method in brief: as §1

[3] = compound: CCc1c2c(nc3ccc(O)cc13)-c1cc3c(c(=O)n1C2)COC(=O)[C@]3(O)CC [SN-38]; details: max 0.3 µM
Method in brief: as §1

[4] = compound: Cc1cc2ncnn2cc1Nc1ncc2c(n1)n(C1CCOCC1)c(=O)n2C [AZD7648]; details: max 10 µM
Method in brief: as §1

[5] = compound: CC(=O)Nc1cccc(-n2c(=O)n(C3CC3)c(=O)c3c(Nc4ccc(I)cc4F)n(C)c(=O)c(C)c32)c1 [Trametinib]; details: max 1 µM
Method in brief: as §1

[6] = compound: Cn1cnc2c(F)c(Nc3ccc(Br)cc3Cl)c(C(=O)NOCCO)cc21 [Selumetinib]; details: max 10 µM
Method in brief: as §1

[7] = compound: COc1cccc2c1C(=O)c1c(O)c3c(c(O)c1C2=O)C[C@@](O)(C(=O)CO)C[C@@H]3O[C@H]1C[C@H](N)[C@H](O)[C@H](C)O1 [Doxorubicin]; details: max 1 µM
Method in brief: as §1

[8] = compound: C1CN(CCC1(C(=O)N[C@@H](CCO)C2=CC=C(C=C2)Cl)N)C3=NC=NC4=C3C=CN4 [AZD5363]; details: max 10 µM
Method in brief: as §1

[9] = compound: CC(=O)c1c(C)c2cnc(Nc3ccc(N4CCNCC4)cn3)nc2n(C2CCCC2)c1=O [Palbociclib]; details: max 10 µM
Method in brief: as §1

[10] = compound: C1CC(C1)(C(=O)[O-])C(=O)[O-].N.N.[Pt+2] [Carboplatin]; details: max 10 µM
Method in brief: as §1

[11] = compound: CN(CC[C@H](CSC1=CC=CC=C1)NC2=C(C=C(C=C2)S(=O)(=O)NC(=O)C3=CC=C(C=C3)N4CCC(CC4)[C@H](C5=CC=CC=C5C6=CC=C(C=C6)Cl)O)S(=O)(=O)C(F)(F)F)CCO [AZD4320]; details: max 1 µM
Method in brief: as §1

[12] = compound: COc1cccc(OCCCN)c1-c1cc(Nc2cnc(C#N)cn2)n[nH]1 [Prexasertib]; details: max 1 µM
Method in brief: as §1

[13] = compound: N#Cc1cnc(Nc2cc(NC[C@H]3CNCCO3)c(C(F)(F)F)cn2)cn1 [SRA737]; details: max 10 µM
Method in brief: as §1

[14] = compound: CC1(C)CCC(CN2CCN(c3ccc(C(=O)NS(=O)(=O)c4ccc(NCC5CCOCC5)c([N+](=O)[O-])c4)c(Oc4cnc5[nH]ccc5c4)c3)CC2)=C(c2ccc(Cl)cc2)C1 [Venetoclax]; details: max 1 µM
Method in brief: as §1

[15] = compound: NC1(c2ccc(-c3nc4ccn5c(=O)[nH]nc5c4cc3-c3ccccc3)cc2)CCC1 [MK-2206]; details: max 10 µM
Method in brief: as §1

[16] = compound: CC1=CN2[C@@H](C1)C=NC3=CC(=C(C=C3C2=O)OC)OCCCCCOC4=C(C=C5C(=C4)N=C[C@@H]6CC(=CN6C5=O)C)OC [SG3199]; details: max 0.001 µM
Method in brief: as §1

[17] = compound: COc1cc2ncnc(Nc3ccc(F)c(Cl)c3)c2cc1OCCCN1CCOCC1 [Gefitinib]; details: max 10 µM
Method in brief: as §1

[18] = compound: Cc1c2c(nn1C)CSCc1cc(n(C)n1)CSc1cc(c3ccccc3c1)OCCCc1c(C(=O)O)n(C)c3c-2c(Cl)ccc13 [AZD5991]; details: max 1 µM
Method in brief: as §1

[19] = compound: COc1cc([C@@H]2c3cc4c(cc3[C@@H](O[C@@H]3O[C@@H]5CO[C@@H](C)O[C@H]5[C@H](O)[C@H]3O)[C@H]3COC(=O)[C@H]23)OCO4)cc(OC)c1O [Etoposide]; details: max 10 µM
Method in brief: as §1

[20] = compound: O=C(Nc1ccc2[nH]nc(-c3ccncc3)c2c1)[C@@H]1CCN(CC(=O)N2CCN(c3ccc(-c4ncccn4)cc3)CC2)C1; details: max 5 µM
Method in brief: as §1

[21] = compound: O=C(c1cc(Cc2n[nH]c(=O)c3ccccc23)ccc1F)N1CCN(C(=O)C2CC2)CC1 [Olaparib]; details: max 10 µM
Method in brief: as §1

[22] = compound: O=c1[nH]cc(F)c(=O)[nH]1 [5-Fluorouracil]; details: max 20 µM
Method in brief: as §1

[23] = compound: CN(C)CCCOc1ccc(-c2ccc3ncc4c(c3c2)n(C2CCOCC2)c(=O)n4C)cn1 [AZD0156]; details: max 3 µM
Method in brief: as §1

[24] = compound: Cc1nc(-c2cn3c(n2)-c2ccc(-c4cnn(C(C)(C)C(N)=O)c4)cc2OCC3)n(C(C)C)n1 [Taselisib]; details: max 10 µM
Method in brief: as §1

[25] = compound: CS(=O)(=O)CCNCc1ccc(-c2ccc3ncnc(Nc4ccc(OCc5cccc(F)c5)c(Cl)c4)c3c2)o1 [Lapatinib]; details: max 10 µM
Method in brief: as §1

[26] = compound: CC(=O)O[C@H]1C(=O)[C@@]2(C)[C@H]([C@H](OC(=O)c3ccccc3)[C@]3(O)C[C@H](OC(=O)[C@H](O)[C@@H](NC(=O)c4ccccc4)c4ccccc4)C(C)=C1C3(C)C)[C@]1(OC(C)=O)CO[C@@H]1C[C@@H]2O [Paclitaxel]; details: max 3 µM
Method in brief: as §1

[27] = compound: CC1=C(C(=CC=C1)Cl)NC(=O)C2=CN=C(S2)NC3=CC(=NC(=N3)C)N4CCN(CC4)CCO [Dasatinib]; details: max 2 µM
Method in brief: as §1

[28] = compound: C=CCn1c(=O)c2cnc(Nc3ccc(N4CCN(C)CC4)cc3)nc2n1-c1cccc(C(C)(C)O)n1 [AZD1775]; details: max 3 µM
Method in brief: as §1

[29] = compound: C[C@@H](c1ccc2nccn2c1)n1nnc2ncc(-c3cnn(C)c3)nc21 [Savolitinib]; details: max 1 µM
Method in brief: as §1

[30] = compound: Nc1ccn([C@@H]2O[C@H](CO)[C@@H](O)C2(F)F)c(=O)n1 [Gemcitabine]; details: max 0.3 µM
Method in brief: as §1

[31] = compound: COc1cc(Nc2ncc3c(n2)-c2ccc(Cl)cc2C(c2c(F)cccc2OC)=NC3)ccc1C(=O)O [Alisertib]; details: max 10 µM
Method in brief: as §1

[32] = compound: CCN(CCO)CCCOc1ccc2c(Nc3cc(CC(=O)Nc4cccc(F)c4)[nH]n3)ncnc2c1 [AZD2811]; details: max 1 µM
Method in brief: as §1

[33] = compound: CC(C)n1c(=O)n(C)c2cnc3cc(F)c(-c4ccc(OCCCN5CCCCC5)nc4)cc3c21 [AZD1390]; details: max 0.3 µM
Method in brief: as §1

[34] = compound: C[C@@H](Oc1cc(-c2cnn(C3CCNCC3)c2)cnc1N)c1c(Cl)ccc(F)c1Cl [Crizotinib]; details: max 10 µM
Method in brief: as §1

[35] = compound: COc1nnc2ccc(N3CCC(c4ccc(OCCN5CCN(C)C(=O)[C@H]5C)cc4)CC3)nn12 [AZD5153]; details: max 1 µM
Method in brief: as §1

Cell Line | IC50, cell viability 72 h [1] | IC50, cell viability 72 h [2] | IC50, cell viability 72 h [3] | IC50, cell viability 72 h [4] | IC50, cell viability 72 h [5] | IC50, cell viability 72 h [6] | IC50, cell viability 72 h [7] | IC50, cell viability 72 h [8] | IC50, cell viability 72 h [9] | IC50, cell viability 72 h [10] | IC50, cell viability 72 h [11] | IC50, cell viability 72 h [12] | IC50, cell viability 72 h [13] | IC50, cell viability 72 h [14] | IC50, cell viability 72 h [15] | IC50, cell viability 72 h [16] | IC50, cell viability 72 h [17] | IC50, cell viability 72 h [18] | IC50, cell viability 72 h [19] | IC50, cell viability 72 h [20] | IC50, cell viability 72 h [21] | IC50, cell viability 72 h [22] | IC50, cell viability 72 h [23] | IC50, cell viability 72 h [24] | IC50, cell viability 72 h [25] | IC50, cell viability 72 h [26] | IC50, cell viability 72 h [27] | IC50, cell viability 72 h [28] | IC50, cell viability 72 h [29] | IC50, cell viability 72 h [30] | IC50, cell viability 72 h [31] | IC50, cell viability 72 h [32] | IC50, cell viability 72 h [33] | IC50, cell viability 72 h [34] | IC50, cell viability 72 h [35]
Hs-766T (Pancreatic Carcinoma) | > 10000 nM | > 10000 nM | > 300 nM | > 10000 nM | 113 nM | 5430 nM | > 1000 nM | > 10000 nM | > 10000 nM | > 10000 nM | > 1000 nM | 163 nM | > 10000 nM | > 1000 nM | > 10000 nM | > 1 nM | > 10000 nM | > 1000 nM | > 10000 nM | > 5000 nM | > 10000 nM | > 20000 nM | > 3000 nM | > 10000 nM | > 10000 nM | > 3000 nM | > 2000 nM | > 3000 nM | > 1000 nM | > 300 nM | > 10000 nM | > 1000 nM | > 300 nM | > 10000 nM | > 1000 nM
NCI-H358 (Lung Adenocarcinoma) | > 10000 nM | > 10000 nM | > 300 nM | > 10000 nM | 147 nM | > 10000 nM | > 1000 nM | > 10000 nM | > 10000 nM | > 10000 nM | > 1000 nM | 46.6 nM | > 10000 nM | > 1000 nM | > 10000 nM | > 1 nM | > 10000 nM | > 1000 nM | > 10000 nM | > 5000 nM | > 10000 nM | > 20000 nM | > 3000 nM | 3470 nM | > 10000 nM | 28.1 nM | > 2000 nM | > 3000 nM | > 1000 nM | > 300 nM | > 10000 nM | > 1000 nM | > 300 nM | > 10000 nM | > 1000 nM
BT-549 (Breast Carcinoma) | > 10000 nM | > 10000 nM | 171 nM | > 10000 nM | > 1000 nM | > 10000 nM | > 1000 nM | > 10000 nM | > 10000 nM | > 10000 nM | > 1000 nM | 592 nM | > 10000 nM | > 1000 nM | > 10000 nM | > 1 nM | > 10000 nM | > 1000 nM | 9220 nM | > 5000 nM | > 10000 nM | > 20000 nM | > 3000 nM | > 10000 nM | > 10000 nM | 25.3 nM | > 2000 nM | 2520 nM | > 1000 nM | > 300 nM | > 10000 nM | > 1000 nM | > 300 nM | > 10000 nM | 531 nM
SW13 (Other Solid Carcinomas) | > 10000 nM | > 10000 nM | 5.19 nM | > 10000 nM | 804 nM | > 10000 nM | 394 nM | > 10000 nM | > 10000 nM | > 10000 nM | > 1000 nM | > 1000 nM | > 10000 nM | > 1000 nM | > 10000 nM | > 1 nM | > 10000 nM | 212 nM | 4890 nM | > 5000 nM | > 10000 nM | > 20000 nM | > 3000 nM | > 10000 nM | 4460 nM | 6.09 nM | 1250 nM | > 3000 nM | > 1000 nM | 27.1 nM | > 10000 nM | > 1000 nM | > 300 nM | > 10000 nM | > 1000 nM
EoL-1-cell (Acute Myeloid Leukemia) | 765 nM | > 10000 nM | 5.99 nM | > 10000 nM | 15.5 nM | 1550 nM | 69.1 nM | 3190 nM | 4640 nM | > 10000 nM | 8.51 nM | 4.87 nM | – | 61.8 nM | 4050 nM | > 1 nM | > 10000 nM | 60.6 nM | 157 nM | 506 nM | > 10000 nM | 3960 nM | > 3000 nM | 6190 nM | > 10000 nM | 4.12 nM | 5.61 nM | 158 nM | > 1000 nM | 6.7 nM | 42.8 nM | 9.92 nM | > 300 nM | 2290 nM | 41.3 nM
